# Laboratory results from patent US7417156B2, “Orally active, antimalarial, anticancer, artemisinin-derived trioxane dimers” (Johns Hopkins University, priority 2002, dated 2008).
# Tests used:
# [1] = system: HCT-116; experiment: NCI 60 cell line panel screen (SRB); type: cell-based, human; conditions: HCT-116 (Colon Cancer); TGI: PG=0
# [2] = system: NCI-H23; experiment: NCI 60 cell line panel screen (SRB); type: cell-based, human; conditions: NCI-H23 (Non-Small Cell Lung Cancer); TGI: PG=0
# [3] = system: NCI/ADR-RES; experiment: NCI 60 cell line panel screen (SRB); type: cell-based, human
# [4] = system: MDA-MB-435; experiment: NCI 60 cell line panel screen (SRB); type: cell-based, human
# [5] = system: OVCAR-8; experiment: NCI 60 cell line panel screen (SRB); type: cell-based, human
# [6] = system: MALME-3M; experiment: NCI 60 cell line panel screen (SRB); type: cell-based, human; conditions: MALME-3M (Melanoma); TGI: PG=0
# [7] = system: M14; experiment: NCI 60 cell line panel screen (SRB); type: cell-based, human
# [8] = system: BT-549; experiment: NCI 60 cell line panel screen (SRB); type: cell-based, human; conditions: BT-549 (Breast Cancer); TGI: PG=0
# [9] = system: T-47D; experiment: NCI 60 cell line panel screen (SRB); type: cell-based, human; conditions: T-47D (Breast Cancer); TGI: PG=0
# [10] = system: SK-MEL-28; experiment: NCI 60 cell line panel screen (SRB); type: cell-based, human
# [11] = system: SK-OV-3; experiment: NCI 60 cell line panel screen (SRB); type: cell-based, human
# [12] = system: IGROVI; experiment: NCI 60 cell line panel screen (SRB); type: cell-based, human
# [13] = system: PC-3; experiment: NCI 60 cell line panel screen (SRB); type: cell-based, human; conditions: PC-3 (Prostate Cancer); TGI: PG=0
# [14] = system: K-562; experiment: NCI 60 cell line panel screen (SRB); type: cell-based, human; conditions: K-562 (Leukemia); TGI: PG=0
# [15] = system: HT29; experiment: NCI 60 cell line panel screen (SRB); type: cell-based, human; conditions: HT29 (Colon Cancer); TGI: PG=0
# [16] = system: HOP-92; experiment: NCI 60 cell line panel screen (SRB); type: cell-based, human
# [17] = system: TK-10; experiment: NCI 60 cell line panel screen (SRB); type: cell-based, human
# [18] = system: 60 cell line panel; type: cell-based
# [19] = system: HOP-62; experiment: NCI 60 cell line panel screen (SRB); type: cell-based, human
# [20] = system: A549/ATCC; experiment: NCI 60 cell line panel screen (SRB); type: cell-based, human
# [21] = system: NCI-H322M; type: cell-based
# [22] = mean value over the 60 cell line panel
smiles,measurement,setting,value
"CC1CCC2C(C)C(CC(COCC(=O)O)CC3OC4OC5(C)CCC6C(C)CCC(C3C)C46OO5)OC3OC4(C)CCC1C32OO4 (stereo not drawn) [Compound 12b, bis-trioxane O-acetic acid]",Log10TGI50,[1],>−4.30 log10M
same,Log10TGI50,[2],>−4.30 log10M
same,Log10GI50,"[3]; Breast Cancer, NCI/ADR-RES",−6.45
same,Log10TGI50,"[3]; NCI/ADR-RES (Breast Cancer), TGI: PG=0",>−4.30 log10M
same,Log10GI50,"[4]; Breast Cancer, MDA-MB-435",−6.97
same,Log10TGI50,"[4]; MDA-MB-435 (Breast Cancer), TGI: PG=0",>−4.30 log10M
same,Log10TGI50,"[5]; OVCAR-8 (Ovarian Cancer), TGI: PG=0",>−4.30 log10M
same,Log10GI50,"[5]; Ovarian Cancer, OVCAR-8",>−4.30
same,Log10TGI50,[6],−6.40 log10M
same,Log10TGI50,"[7]; M-14 (Melanoma), TGI: PG=0",>−4.30 log10M
same,Log10GI50,"[7]; Melanoma, M14",−6.68
same,Log10TGI50,[8],>−4.30 log10M
same,Log10TGI50,[9],>−4.30 log10M
same,Log10GI50,"[10]; Melanoma, SK-MEL-28",−4.92
same,Log10TGI50,"[10]; SK-MEL-28 (Melanoma), TGI: PG=0",>−4.30 log10M
same,Log10GI50,"[11]; Ovarian Cancer, SK-OV-3",>−4.30
same,Log10TGI50,"[11]; SK-OV-3 (Ovarian Cancer), TGI: PG=0",>−4.30 log10M
same,Log10TGI50,"[12]; IGROVI (Ovarian Cancer), TGI: PG=0",>−4.30 log10M
same,Log10GI50,"[12]; Ovarian Cancer, IGROVI",−5.06
same,Log10TGI50,[13],−4.92 log10M
same,Log10TGI50,[14],>−4.30 log10M
same,Log10TGI50,[15],>−4.30 log10M
same,Log10TGI50,"[16]; HOP-92 (Non-Small Cell Lung Cancer), TGI: PG=0",>−4.30 log10M
same,Log10GI50,"[16]; Non-Small Cell Lung Cancer, HOP-92",−7.00
same,Log10GI50,"[17]; Renal Cancer, TK-10",−7.22
same,Log10TGI50,"[17]; TK-10 (Renal Cancer), TGI: PG=0",−5.22 log10M
same,Log10GI50 Delta,[18],1.57
same,Log10GI50 Range,[18],4.00
same,Log10LC50 Delta,[18]; 60 cell line panel,0.70
same,Log10LC50 Range,[18]; 60 cell line panel,0.72
same,Log10TGI50 Delta,[18]; 60 cell line panel,3.49
same,Log10TGI50 Range,[18]; 60 cell line panel,4.00
same,growth inhibition in words,"[18]; colon cancer KM12, ovarian cancer OVCAR 3, breast cancer MDA-MB-435",selectively and strong inhibitory
same,Log10GI50 MG MID,[18]; mean over panel,−6.73
same,Log10LC50 MG MID,[18]; [22],−4.32 log10M
same,Log10TGI50 MG MID,[18]; [22],−4.81 log10M
same,Log10TGI50,"[19]; HOP-62 (Non-Small Cell Lung Cancer), TGI: PG=0",>−4.30 log10M
same,Log10GI50,"[19]; Non-Small Cell Lung Cancer, HOP-62",−6.23
same,Log10TGI50,"[20]; A549/ATCC (Non-Small Cell Lung Cancer), TGI: PG=0",>−4.30 log10M
same,Log10GI50,"[20]; Non-Small Cell Lung Cancer, A549/ATCC",>−4.30
same,Log10TGI50,"[21]; NCI-H322M (Non-Small Cell Lung Cancer), TGI: PG=0",>−4.30 log10M
same,Log10GI50,"[21]; Non-Small Cell Lung Cancer, NCI-H322M",−5.03
